{
  "source": "patent US6046231A",
  "about": "“Use of 4'-bromoflavone in a cancer chemopreventative composition and method” (The Board of Trustees of the University of Illinois, priority 1999, dated 2000)",
  "key": {"glutathione (GSH) level": {"system": "glutathione (GSH) level", "experiment": "Glutathione (GSH) level in rat tissues after dietary administration", "format": "in vivo, Sprague Dawley rat", "experimental": "Analysis of Quinone Reductase Activity and Glutathione Level in Rat Tissues. Spraque Dawley rats (n=10) at 43 days of age were placed on an appropriate experimental diet (5000, 2500, 1250, 625, and 312.5 mg/kg diet of 4'-BF) for three weeks. After three weeks, animals were sacrificed by carbon dioxide (CO2) asphyxiation. The livers, mammary glands, colons, stomachs, and lungs were collected, rinsed with saline, and frozen in liquid nitrogen and stored at -80° C. until enzyme activities were determined. Individual tissues (except mammary glands) were homogenized in 0.25 M sucrose and centrifuged at 15,000×g for 30 min at 4° C. The supernatant fluids were collected, 20% volume of 0.1 M CaCl2 in 0.25 M sucrose were added. After incubation at 0° C. for 30 min and further centrifuging at 15,000×g for 30 min at 4° C., a clear cytosolic fraction was used for enzyme assay. Mammary glands of each animal were pooled, homogenized in 1 ml ice-cold 0.1 M phosphate buffer pH 6.5 and centrifuged (15,000×g, 30 min at 4° C.), a clear supernatant suitable for enzyme assay resulted. Dicumarol-sensitive QR activity was measured in duplicate in 50 μl of suitable dilution of the tissue supernatant as described for the cellular system. GSH levels were assayed in duplicate using 96-well plates. […] The plates were shaken for 5-10 min and the extent of 2-nitro-5-thiobenzoic acid formation was monitored at 405 nm. A GSH standard curve was used to calculate the GSH content. GSH levels were expressed as nmol/mg protein.\nInduction of Quinone Reductase Activity and Glutathione Level in Rat Tissues. Based on the results in cell cultures, 4'-BF was further evaluated for its inducing potency in rat liver, mammary gland, colon, stomach, and lung. […] The concentration of 4'-BF for maximum induction of GSH was about 1250 to about 2500 mg/kg diet, but varied for different organ sites."}, "quinone reductase (QR)": {"system": "quinone reductase (QR)", "experiment": "Effect on DMBA-induced QR activity in rat tissues", "format": "in vivo, Sprague Dawley rat", "details": "liver and mammary gland", "experimental": "Effect of 4'-Bromoflavone on DMBA-induced QR Activity and Cytochrome P4501A1 Activity in Rat Tissues. At 43 days of age, Sprague Dawley rats were placed on various experimental diets (Table 1) for 1 week prior to administration of a single (i.g.) dose of DMBA (15 mg). Animals then were weighed and sacrificed by CO2 asphyxiation. Tissues (livers and mammary glands) were collected, rinsed with saline, frozen in liquid nitrogen, and stored at -80° C. until analysis. Individual tissues were homogenized in 0.05 M Tris-HCl buffer (pH 7.5) containing 0.25 M sucrose. Cytosolic and microsomal fractions were obtained through differential centrifugation. Dicumarol-sensitive QR activity was measured as described above using 50 μl of suitably diluted cytosol supernatants (in duplicate). Cytochrome P4501A1-mediated EROD activities were determined as described previously in R. Poul et al. Anal. Biochem., 107, pp. 265-275 (1980) and S. Sharma et al., Cancer Res., 54, pp. […] (1994), with slight modifications using suitably diluted microsomal protein. Enzyme activities were expressed as nmol/mg protein/min. Protein content was determined using Bradford reagent with BSA as standard, and data were presented as mean ±SE and analyzed using Student's t test (n=5).\nTest animals were placed on various experimental diets for one week (Table 1) prior to a single i.g. dose of DMBA (15 mg). […]"}, "[1]": {"system": "Salmonella typhimurium strain TM677", "experiment": "Antimutagenic assay, DMBA-induced mutagenesis", "format": "cell-based", "details": "S. typhimurium TM677; listed as 4'-BF", "experimental": "A dose and time dependent induction of two major detoxification isoforms of GST (α form and μ form) mediated by 4'-BF has been studied in H4IIE rat hepatoma cells. In order to determine a possible mechanism of induction, the QR mRNA expression was tested using a RT-PCR technique and the induction patterns using HepG2 cells transfected with QR-chloramphenical acetyltransferase plasmid constructs containing various portions of 5'-region of the QR gene were analyzed. The antimutagenic activity of 4'-BF was tested in an antimutagenic assay against DMBA-induced mutagenesis with Salmonella typhimurium strain TM677. The chemopreventive efficacy of 4'-BF also was evaluated in a DMBA-induced mammary tumor carcinogenesis model in Sprague Dawley rats."}},
  "data": [
    {"smiles": "O=c1cc(-c2ccc(Br)cc2)oc2ccccc12", "note": "[4'-Bromoflavone]", "values": [
      {"measurement": "GSH level increase, colon", "setting": "glutathione (GSH) level; colon, dietary", "value": "1.40-1.72 fold"},
      {"measurement": "glutathione levels in rat tissues", "setting": "glutathione (GSH) level; liver, mammary gland, colon, stomach, lung, short-term dietary, P<0.0001", "value": "significantly increased"},
      {"measurement": "GSH level increase, liver", "setting": "glutathione (GSH) level; liver, dietary", "value": "1.62-1.83 fold"},
      {"measurement": "GSH level increase, lung", "setting": "glutathione (GSH) level; lung, dietary", "value": "1.09-1.42 fold"},
      {"measurement": "GSH level increase, mammary gland", "setting": "glutathione (GSH) level; mammary gland, dietary", "value": "1.01-1.28 fold"},
      {"measurement": "GSH level increase, stomach", "setting": "glutathione (GSH) level; stomach, dietary", "value": "1.16-1.17 fold"},
      {"measurement": "QR activity vs control (basal diet)", "setting": "quinone reductase (QR); 1 week diet, DMBA 15 mg i.g.", "value": "significantly induced"},
      {"measurement": "QR activity vs DMBA alone", "setting": "quinone reductase (QR); DMBA and 4'-BF or 4'-BF alone", "value": "significant dose-dependent induction"},
      {"measurement": "inhibition of DMBA-induced mutagenesis", "setting": "[1]", "value": "strongly inhibited"}
    ]}
  ]
}
